Measured values reported in ChEMBL document CHEMBL4138123, “Design, synthesis and biological evaluation of novel pyrazolochalcones as potential modulators of PI3K/Akt/mTOR pathway and inducers of apoptosis in breast cancer cells” (Eur J Med Chem, 2017).

What was measured:
Format in all cases: functional
NCI-H460 = test: Cytotoxicity against human NCI-H460 cells assessed as cell growth at 1 uM after 48 hrs by sulforhodamine B assay relative to control; conditions: NCI-H460, 48 h, read-out: Activity
HCT-15 = test: Cytotoxicity against human HCT15 cells assessed as cell growth at 0.1 uM after 48 hrs by sulforhodamine B assay relative to control; conditions: HCT-15, 48 h, read-out: Activity
SF-268 = test: Cytotoxicity against human SF268 cells assessed as cell growth at 0.01 uM after 48 hrs by sulforhodamine B assay relative to control; conditions: SF-268, 48 h, read-out: Activity
K562 = test: Cytotoxicity against human K562 cells assessed as cell growth at 0.01 uM after 48 hrs by sulforhodamine B assay relative to control; conditions: K562, 48 h, read-out: Activity
CCRF-CEM = test: Cytotoxicity against human CCRF-CEM cells assessed as cell growth at 10 uM after 48 hrs by sulforhodamine B assay relative to control; conditions: read-out: Activity
UACC-257 = test: Cytotoxicity against human UACC257 cells assessed as cell growth at 0.1 uM after 48 hrs by sulforhodamine B assay relative to control; conditions: UACC-257, 48 h, read-out: Activity
DU-145 = test: Cytotoxicity against human DU145 cells assessed as cell growth at 0.01 uM after 48 hrs by sulforhodamine B assay relative to control; conditions: DU-145, 48 h, read-out: Activity
OVCAR-3 = test: Cytotoxicity against human OVCAR3 cells assessed as growth inhibition after 48 hrs by sulforhodamine B assay; conditions: OVCAR-3, 48 h
SK-MEL-28 = test: Cytotoxicity against human SK-MEL-28 cells assessed as cell growth at 1 uM after 48 hrs by sulforhodamine B assay relative to control; conditions: SK-MEL-28, 48 h, read-out: Activity
TK-10 [1] = test: Cytotoxicity against human TK10 cells assessed as growth inhibition after 48 hrs by sulforhodamine B assay; conditions: TK-10, 48 h
OVCAR-8 = test: Cytotoxicity against human OVCAR8 cells assessed as cell growth at 0.01 uM after 48 hrs by sulforhodamine B assay relative to control; conditions: OVCAR-8, 48 h, read-out: Activity
Malme-3M = test: Cytotoxicity against human MALME-3M cells assessed as cell growth at 10 uM after 48 hrs by sulforhodamine B assay relative to control; conditions: read-out: Activity
ACHN = test: Cytotoxicity against human ACHN cells assessed as cell growth at 0.1 uM after 48 hrs by sulforhodamine B assay relative to control; conditions: read-out: Activity
NCI-H522 [2] = test: Cytotoxicity against human NCI-H522 cells assessed as cell growth at 10 uM after 48 hrs by sulforhodamine B assay relative to control; conditions: NCI-H522, 48 h, read-out: Activity
MDA-MB-435 [3] = test: Cytotoxicity against human MDA-MB-435 cells assessed as cell growth at 0.01 uM after 48 hrs by sulforhodamine B assay relative to control; conditions: MDA-MB-435, 48 h, read-out: Activity
NCI-H226 [4] = test: Cytotoxicity against human NCI-H226 cells assessed as cell growth at 0.1 uM after 48 hrs by sulforhodamine B assay relative to control; conditions: NCI-H226, 48 h, read-out: Activity
786-0 = test: Cytotoxicity against human 786-0 cells assessed as cell growth at 0.1 uM after 48 hrs by sulforhodamine B assay relative to control; conditions: 786-0, 48 h, read-out: Activity
NCI-H226 [5] = test: Cytotoxicity against human NCI-H226 cells assessed as cell growth at 10 uM after 48 hrs by sulforhodamine B assay relative to control; conditions: NCI-H226, 48 h, read-out: Activity
TK-10 [6] = test: Cytotoxicity against human TK10 cells assessed as cell growth at 0.01 uM after 48 hrs by sulforhodamine B assay relative to control; conditions: TK-10, 48 h, read-out: Activity
A549 = test: Cytotoxicity against human A549/ATCC cells assessed as cell growth at 0.01 uM after 48 hrs by sulforhodamine B assay relative to control; conditions: A549, 48 h, read-out: Activity
UACC-62 = test: Cytotoxicity against human UACC62 cells assessed as growth inhibition after 48 hrs by sulforhodamine B assay; conditions: UACC-62, 48 h
NCI-H522 [7] = test: Cytotoxicity against human NCI-H522 cells assessed as cell growth at 0.1 uM after 48 hrs by sulforhodamine B assay relative to control; conditions: NCI-H522, 48 h, read-out: Activity
PC-3 = test: Cytotoxicity against human PC3 cells assessed as cell growth at 100 uM after 48 hrs by sulforhodamine B assay relative to control; conditions: PC-3, 48 h, read-out: Activity
A498 [8] = test: Cytotoxicity against human A498 cells assessed as cell growth at 0.01 uM after 48 hrs by sulforhodamine B assay relative to control; conditions: A498, 48 h, read-out: Activity
MDA-MB-435 [9] = test: Cytotoxicity against human MDA-MB-435 cells assessed as cell growth at 1 uM after 48 hrs by sulforhodamine B assay relative to control; conditions: MDA-MB-435, 48 h, read-out: Activity
SF-539 = test: Cytotoxicity against human SF539 cells assessed as growth inhibition after 48 hrs by sulforhodamine B assay; conditions: SF-539, 48 h
UO-31 = test: Cytotoxicity against human UO31 cells assessed as cell growth at 100 uM after 48 hrs by sulforhodamine B assay relative to control; conditions: UO-31, 48 h, read-out: Activity
HL-60(TB) = test: Cytotoxicity against human HL-60(TB) cells assessed as growth inhibition after 48 hrs by sulforhodamine B assay; conditions: HL-60, 48 h
SK-MEL-5 = test: Cytotoxicity against human SK-MEL-5 cells assessed as cell growth at 1 uM after 48 hrs by sulforhodamine B assay relative to control; conditions: SK-MEL-5, 48 h, read-out: Activity
A498 [10] = test: Cytotoxicity against human A498 cells assessed as cell growth at 1 uM after 48 hrs by sulforhodamine B assay relative to control; conditions: A498, 48 h, read-out: Activity
T47D = test: Cytotoxicity against human T47D cells assessed as cell growth at 0.01 uM after 48 hrs by sulforhodamine B assay relative to control; conditions: read-out: Activity
M14 = test: Cytotoxicity against human M14 cells assessed as growth inhibition after 48 hrs by sulforhodamine B assay; conditions: M14, 48 h
NCI-H322M = test: Cytotoxicity against human NCI-H322M cells assessed as cell growth at 0.01 uM after 48 hrs by sulforhodamine B assay relative to control; conditions: read-out: Activity
KM12 = test: Cytotoxicity against human KM12 cells assessed as growth inhibition after 48 hrs by sulforhodamine B assay; conditions: KM12, 48 h

Work on `COc1cc(-c2cc(/C=C/C(=O)c3ccc4c(c3)OCO4)[nH]n2)cc(OC)c1OC` yielded a growth at 1 µM (NCI-H460) of 93%, a growth at 0.1 µM (HCT-15) of 92% and a growth at 0.01 µM (SF-268) of 91%. For the same compound, the growth at 0.01 µM (K562) was 100%, the growth at 10 µM (CCRF-CEM) was -19% and the growth at 0.1 µM (UACC-257) was 91%. The growth at 0.01 µM (DU-145) was 104%, the LC50 (OVCAR-3) was over 100 µM and the TGI (OVCAR-3) was 12.3 µM. It also gave a growth at 1 µM (SK-MEL-28) of 92%, an LC50 (TK-10 [1]) of over 100 µM and a TGI (TK-10 [1]) of 5.73 µM. It also gave a growth at 0.01 µM (OVCAR-8) of 99%, a growth at 10 µM (Malme-3M) of 26% and a growth at 0.1 µM (ACHN) of 109%. It also gave a growth at 10 µM (NCI-H522 [2]) of -88%, a growth at 0.01 µM (MDA-MB-435 [3]) of 96% and a growth at 0.1 µM (NCI-H226 [4]) of 98%. It also gave a growth at 0.1 µM (786-0) of 97%, a growth at 10 µM (NCI-H226 [5]) of 14% and a growth at 0.01 µM (TK-10 [6]) of 89%. The growth at 0.01 µM (A549) was 101%, the LC50 (UACC-62) was over 100 µM and the TGI (UACC-62) was over 100 µM. For the same compound, the growth at 0.1 µM (NCI-H522 [7]) was 92%, the growth at 100 µM (PC-3) was -38% and the growth at 0.01 µM (A498 [8]) was 89%. It also gave a growth at 1 µM (MDA-MB-435 [9]) of 90%, an LC50 (concentration killing 50% of cells) (SF-539) of 25.4 µM and a TGI (SF-539) of 5.73 µM. The growth at 100 µM (UO-31) was -79%, the LC50 (HL-60(TB)) was over 100 µM and the TGI (HL-60(TB)) was 6.36 µM. The growth at 1 µM (SK-MEL-5) was 95%, the growth at 1 µM (A498 [10]) was 83% and the growth at 0.01 µM (T47D) was 100%. For the same compound, the LC50 (concentration killing 50% of cells) (M14) was over 100 µM, the TGI (M14) was over 100 µM and the growth at 0.01 µM (NCI-H322M) was 94%.

For `COc1ccc(-c2cc(/C=C/C(=O)c3ccc4c(c3)OCO4)[nH]n2)cc1OC`, the GI50 (OVCAR-3) was 1.96 µM, the GI50 (TK-10 [1]) was 1.5 µM and the GI50 (KM12) was 0.62 µM. The GI50 (UACC-62) was 1.86 µM, the GI50 (SF-539) was 0.52 µM and the GI50 (HL-60(TB)) was 2.76 µM. For the same compound, the GI50 (M14) was 1.91 µM.

`COc1cc(-c2cc(/C=C/C(=O)c3ccc(Cl)c(Cl)c3)[nH]n2)cc(OC)c1OC` gave a growth at 1 µM (NCI-H460) of 93%, a growth at 0.1 µM (HCT-15) of 94% and a growth at 0.01 µM (SF-268) of 92%. For the same compound, the growth at 0.01 µM (K562) was 99%, the growth at 10 µM (CCRF-CEM) was 9% and the growth at 0.1 µM (UACC-257) was 96%. It also gave an LC50 (OVCAR-3) of over 100 µM, a TGI (OVCAR-3) of 37.8 µM and a growth at 1 µM (SK-MEL-28) of 114%. For the same compound, the LC50 (TK-10 [1]) was over 100 µM, the TGI (TK-10 [1]) was 43.2 µM and the growth at 0.01 µM (OVCAR-8) was 94%. The growth at 10 µM (Malme-3M) was 72%, the growth at 0.1 µM (ACHN) was 105% and the growth at 10 µM (NCI-H522 [2]) was -72%. For the same compound, the growth at 0.01 µM (MDA-MB-435 [3]) was 94%, the LC50 (KM12) was over 100 µM and the TGI (KM12) was over 100 µM. For the same compound, the growth at 0.1 µM (NCI-H226 [4]) was 103%, the growth at 0.1 µM (786-0) was 94% and the growth at 10 µM (NCI-H226 [5]) was 67%. It also gave a growth at 0.01 µM (TK-10 [6]) of 90%, a growth at 0.01 µM (A549) of 101% and an LC50 (UACC-62) of over 100 µM. The TGI (UACC-62) was over 100 µM, the growth at 0.1 µM (NCI-H522 [7]) was 89% and the growth at 100 µM (PC-3) was 10%. It also gave a growth at 0.01 µM (A498 [8]) of 84%, a growth at 1 µM (MDA-MB-435 [9]) of 90% and an LC50 (concentration killing 50% of cells) (SF-539) of 57.8 µM. For the same compound, the TGI (SF-539) was 18.7 µM, the growth at 100 µM (UO-31) was 18% and the LC50 (HL-60(TB)) was over 100 µM. The TGI (HL-60(TB)) was 36.7 µM, the growth at 1 µM (SK-MEL-5) was 94% and the growth at 1 µM (A498 [10]) was 73%. It also gave a growth at 0.01 µM (T47D) of 90%, an LC50 (concentration killing 50% of cells) (M14) of over 100 µM and a TGI (M14) of over 100 µM. The growth at 0.01 µM (NCI-H322M) was 89%.
